Results from patent US11400073B2, “Prevention and treatment of benign prostatic hyperplasia using a selective inhibitor of the production of reactive oxygen species of mitochondrial origin” (priority 2017, dated 2022).

What was measured:
Pb-PRL mice = assay: Scar fibrosis in Pb-PRL mouse prostate; type: in vivo; settings: 60 mg/kg/day, 28 days, vs control
Protocol: ATT (anethole trithione) was administered to probasin-prolactin (Pb-PRL) mice. This is a transgenic mouse model in which prolactin is specifically overexpressed by the epithelial cells of the prostate, leading to development of benign hyperplasia having characteristics in common with the human pathology: tissue hypertrophy, hyperplasia of the epithelial and stromal cells, and intra-prostatic inflammation (Kindblom et al., 2003; Bernichtein et al., 2015a; Bernichtein et al., 2015b). […] The control group (excipient) was treated with the oil alone. […] The animals were sacrificed at the end of the 28 days of treatment (cervical dislocation), and the prostates were harvested and analyzed by the standard procedures previously described in the literature (Bernichtein et al. Prostate 2015, Bernichtein et al. PLoS. ONE 2015, Bernichtein et al. Cancer Res 2017).

PHD3 dioxygenase = assay: RT-qPCR of PHD3 dioxygenase in Pb-PRL mouse prostate; type: in vivo; settings: Pb-PRL mice, 60 mg/kg/day, 28 days, vs control; FIGS. 12A-12C
Protocol: (§1) ATT (anethole trithione) was administered to probasin-prolactin (Pb-PRL) mice. This is a transgenic mouse model in which prolactin is specifically overexpressed by the epithelial cells of the prostate, leading to development of benign hyperplasia having characteristics in common with the human pathology: tissue hypertrophy, hyperplasia of the epithelial and stromal cells, and intra-prostatic inflammation (Kindblom et al., 2003; Bernichtein et al., 2015a; Bernichtein et al., 2015b).
(§2) The control group (excipient) was treated with the oil alone.
(§3) The animals were sacrificed at the end of the 28 days of treatment (cervical dislocation), and the prostates were harvested and analyzed by the standard procedures previously described in the literature (Bernichtein et al. Prostate 2015, Bernichtein et al. PLoS. ONE 2015, Bernichtein et al. Cancer Res 2017).
(§4) Oxidative stress will be measured using two approaches: • oxidation/carbonylation of the proteins by blot (Oxyblot™, Merck). • PHD1 and PHD3 dioxygenase expression (RT-qPCR).

HIF1 alpha = assay: RT-qPCR of HIF1 alpha (hypoxia) in Pb-PRL mouse prostate; type: in vivo; settings: Pb-PRL mice, 60 mg/kg/day, 28 days, vs control; in one or more prostate lobes; FIGS. 13A-13C
Protocol: as §1, §2, §3
Hypoxia was observed by analysis of HIF1 alpha measured by RT-qPCR at the dorsal, lateral and ventral prostate. The results are presented in FIGS. 13A, 13B and […], respectively.

[1] = in rats; cited from earlier work
[2] = system: epithelial proliferation (Ki-67); assay: Epithelial proliferation by IHC Ki-67 in Pb-PRL mouse prostate; type: in vivo; settings: Pb-PRL mice, 60 mg/kg/day by gavage, 28 days, vs control group; half-prostate; FIG. 2
Protocol: as §1, §2, §3
Cell proliferation was measured by IHC Ki-67, which makes it possible to calculate the epithelium proliferation index (manual counting or Calopix software).

TNFalpha = assay: RT-qPCR of TNFalpha in Pb-PRL mouse prostate; type: in vivo; settings: Pb-PRL mice, 60 mg/kg/day, 28 days, vs control; dorsal, lateral, ventral prostate; FIGS. 9A-9C
Protocol: as §1, §2, §3
(§5) The inflammation was measured using two approaches: • CD45 immunolabeling (IHC): making it possible to quantify the number and size of the inflammation sites (image analysis using Calopix software). • RT-qPCR of selected cytokines: IL6 and TNFa.

[3] = system: SRD5A1 (5-alpha-reductase); assay: RT-qPCR of SRD5A1 in Pb-PRL mouse prostate; type: in vivo; settings: Pb-PRL mice, 60 mg/kg/day, 28 days, vs control; dorsal, lateral, ventral prostate; FIGS. 4A-4C
Protocol: as §1, §2, §3
(§6) This study was performed by RT-qPCR analysis of the expression of elements associated with androgenic signaling and of conventional targets of the androgen receptor in the prostate (AR, PSP 94, Srd5A1, Srd5A2) (Bernichtein et al. Prostate 2015, Sackmann Sala et al. J Pathol 2017).

[4] = marketed as SULFARLEM; cited from earlier work
IL6 = assay: RT-qPCR of IL6 in Pb-PRL mouse prostate; type: in vivo; settings: Pb-PRL mice, 60 mg/kg/day, 28 days, vs control; dorsal, lateral, ventral prostate; FIGS. 8A-8C
Protocol: as §1, §2, §3, §5

CD45 = CD45 immunolabeling (IHC) of inflammation sites in Pb-PRL mouse prostate; type: in vivo; settings: Pb-PRL mice, 60 mg/kg/day, 28 days, vs control; half-prostate; FIG. 7
Protocol: as §1, §2, §3, §5

PHD1 dioxygenase = assay: RT-qPCR of PHD1 dioxygenase in Pb-PRL mouse prostate; type: in vivo; settings: Pb-PRL mice, 60 mg/kg/day, 28 days, vs control; FIGS. 11A-11C
Protocol: as §1, §2, §3, §4

PSP94 = assay: RT-qPCR of PSP94 in Pb-PRL mouse prostate; type: in vivo; settings: Pb-PRL mice, 60 mg/kg/day, 28 days, vs control; dorsal, lateral, ventral prostate; FIGS. 6A-6C
Protocol: as §1, §2, §3, §6

[5] = system: IQ site of the I complex of the mitochondrial respiratory chain; assay: Action on mitochondrial ROS production; type: biochemical; settings: mostly at the IQ site of the I complex of the mitochondrial respiratory chain; unlike conventional antioxidants
[6] = system: SRD5A2 (5-alpha-reductase); assay: RT-qPCR of SRD5A2 in Pb-PRL mouse prostate; type: in vivo; settings: Pb-PRL mice, 60 mg/kg/day, 28 days, vs control; dorsal, lateral, ventral prostate; FIGS. 5A-5C
Protocol: as §1, §2, §3, §6

[7] = system: mitochondrial oxidative phosphorylation; assay: Effect on mitochondrial oxidative phosphorylation; type: biochemical; settings: preliminarily demonstrated
[8] = system: oxidation/carbonylation of the proteins; assay: Oxidation/carbonylation of the proteins by blot (Oxyblot) in Pb-PRL mouse prostate; type: in vivo; settings: Pb-PRL mice, 60 mg/kg/day, 28 days, vs control; all lobes; FIGS. 10A-10C
Protocol: as §1, §2, §3, §4

cytokines = settings: experimental T. vaginalis prostatic infection models; inhibition of ROS production (Kim S-S., 2016); cited from earlier work
HIF-1α = settings: Ren, 2015; cited from earlier work
VEGF = settings: Ren, 2015; cited from earlier work
[9] = system: cell proliferation / apoptosis; settings: Ren, 2015; cited from earlier work
prostatic ROSs = settings: Ren, 2015; cited from earlier work

COc1ccc(-c2cc(=S)ss2)cc1 [ATT, 5-(4-methoxyphenyl)-3H-1,2-dithiole-3-thione]
scar fibrosis (Pb-PRL mice): statistically significant increase
expression of the messenger RNAs of PHD3 dioxygenase (PHD3 dioxygenase): statistically significant decrease
expression of the messenger RNAs of the HIF1 alpha hypoxia marker (HIF1 alpha): statistically significant increase
half-life [1]: 24 min
epithelial proliferation of the prostate (Ki-67 immunohistochemistry) [2]: statistically significant decrease
expression of TNFalpha (TNFalpha): decrease
expression of 5-alpha-reductase 1 (SRD5A1) messenger RNAs [3]: statistically significant decrease
side effects associated to long-term use [4]: no side effect has been reported
expression of IL6 (IL6): decrease
number of positive leukocyte cell sites for the CD45 marker (CD45): statistically significant decrease
expression of the messenger RNAs of PHD1 dioxygenase (PHD1 dioxygenase): statistically significant decrease
expression of PSP94 messenger RNAs (PSP94): statistically significant decrease
action on mitochondrial ROS production [5]: acts directly and selectively
expression of 5-alpha-reductase 2 (SRD5A2) messenger RNAs [6]: statistically significant decrease
effect on mitochondrial oxidative phosphorylation [7]: does not affect
carbonylation of the proteins (Oxyblot) [8]: statistically significant decrease

c1ccc2c(c1)[I+]c1ccccc1-2 [DPI, diphenylene iodonium]
overexpression of cytokines (cytokines): prevents overexpression

CC1=NN(c2ccccc2)C(=O)C1 [edaravone]
levels of HIF-1α (HIF-1α): decreases
levels of VEGF (VEGF): decreases
apoptosis [9]: promotes
cell proliferation [9]: reduces
levels of prostatic ROSs (prostatic ROSs): decreases
